{
  "source": "patent US10227369B2",
  "about": "“Short-chain fatty acid hexosamine analogs and their use in tissue engineering applications” (THE JOHNS HOPKINS UNIVERSITY, priority 2013, dated 2019)",
  "key": {"[1]": {"test_system": "chondrogenic-induced MSCs", "test": "Chondrogenic-induced MSCs in 3D PEGDA hydrogels: biochemical analysis and histology", "assay_type": "cell-based, goat", "settings": "21 days", "description": "(§1) Goat MSCs were isolated from 2- to 4-year-old goats (Thomas D. Morris, Inc., Reisterstown, Md.), as previously described. Briefly, bone marrow aspirates treated with 6,000 U/ml heparin were washed twice with PBS. Cells were plated at a density of 120,000 mononuclear cells/cm^2 and cultured in high glucose DMEM supplemented with 10% (v/v) FBS, 2 mM L-glutamine, 100 U/ml penicillin and 100 μg/ml streptomycin. The following day, tissue culture dishes were washed with PBS and medium was replaced. Medium changes were performed 3 times per week. Cells were passaged using 0.25% trypsin. They were used for experiments after passage four.\nPhotoencapsulation in Poly(Ethylene Glycol)-Diacrylate (PEGDA) Hydrogels and Construct Culturing. For all 3D culture experiments, cells were photoencapsulated in PEGDA hydrogels, as previously described. Briefly, 100 mg PEGDA (3.4 kDa, SunBio, Anyang City, South Korea) was dissolved in 1 ml sterile PBS. A photoinitiator solution of Irgacure® 2959 (CIBA Specialty Chemicals) was prepared by dissolving 100 mg of Irgacure® 2959 in 1 ml 70% ethanol. Five microliters of the Irgacure® 2959 solution was added to 1 ml of PEGDA solution. Cells were suspended in the hydrogel precursor solution at a density of 20 million cells/ml and polymerized in sterile molds. A high cell density was chosen as it has been shown. Based on our previous studies a high cell density was chosen to best to support a cell phenotype and differentiation and cell phenotype. Polymerization was carried out using UV light (365 nm, 3.2 mW/cm^2) exposure for 5 minutes. […]\n(§2) Biochemical Analysis. The constructs (n=3 for chondrocyte experiments and n=4 for chondrogenic experiments) were lyophilized for 48 hours and the dry weights measured. […] Quantification of DNA content was carried out using a Hoescht Dye 33342 DNA assay. […] Quantification of sulfated glycosaminoglycans (sGAG), a molecule found in cartilage ECM, was carried out using a 1,9-dimethylmethylene blue (DMMB) dye assay; chondroitin sulfate was used to generate standard curves. Quantification of collagen was carried out via measuring hydroxyproline content after hydrolyzing in 6 N HCl overnight at 120° C. […]"}, "[2]": {"test_system": "chondrogenic-induced MSCs stimulated by IL-1β", "test": "IL-1β-stimulated chondrogenic-induced MSCs in 3D PEGDA hydrogels: biochemical analysis", "assay_type": "cell-based, goat", "settings": "10 ng/ml IL-1β, 21 days exposure", "description": "as §1\nPhotoencapsulation in Poly(Ethylene Glycol)-Diacrylate (PEGDA) Hydrogels and Construct Culturing. […]\nas §2"}, "[3]": {"test_system": "chondrogenic-induced MSCs", "test": "Chondrogenic-induced MSCs in 3D PEGDA hydrogels: real-time PCR gene expression", "assay_type": "cell-based, goat", "description": "as §1\n(§3) Photoencapsulation in Poly(Ethylene Glycol)-Diacrylate (PEGDA) Hydrogels and Construct Culturing. For all 3D culture experiments, cells were photoencapsulated in PEGDA hydrogels, as previously described. Briefly, 100 mg PEGDA (3.4 kDa, SunBio, Anyang City, South Korea) was dissolved in 1 ml sterile PBS. A photoinitiator solution of Irgacure® 2959 (CIBA Specialty Chemicals) was prepared by dissolving 100 mg of Irgacure® 2959 in 1 ml 70% ethanol. Five microliters of the Irgacure® 2959 solution was added to 1 ml of PEGDA solution. Cells were suspended in the hydrogel precursor solution at a density of 20 million cells/ml and polymerized in sterile molds. A high cell density was chosen as it has been shown. Based on our previous studies a high cell density was chosen to best to support a cell phenotype and differentiation and cell phenotype. Polymerization was carried out using UV light (365 nm, 3.2 mW/cm^2) exposure for 5 minutes.\nFor chondrogenesis experiments, the cell-laden hydrogels were cultured in chondrogenic induction medium (high glucose DMEM supplemented with 50 μg/ml ascorbic acid-2-phosphate, 40 μg/ml L-proline, 100 μg/ml sodium pyruvate, 1% ITS-premix (6.25 μg/ml insulin, 6.25 μg/ml transferrin, 6.25 ng/ml selenous acid, 1.25 mg/ml bovine serum albumin (BSA), 5.35 μg/ml linoleic acid (Collaborative Biomedical, BD Bioscience, Bedford, Mass.)) and 10 ng/ml TGF-β1 (Fitzgerald Industries International, Acton, Mass.) with specified concentrations of GalNAc-a or 100 nM dexamethasone (as a control). Constructs were cultured for 21 days with medium changes 3 times per week. For IL-1β stimulation, the cell-laden hydrogels were cultured for 3 days in chondrogenic induction medium supplemented with 10 ng/ml IL-1β. Constructs were cultured for an additional 21 days with chondrogenic induction medium supplemented with 10 ng/ml IL-1β and the specified concentration of GalNAc-a.\nRNA Isolation and Real-Time PCR. Total RNA was extracted using TRIzol® reagent (Life Technologies, Grand Island, N.Y.) following the manufacturer's protocol. cDNA was synthesized using Superscript® II reverse transcriptase (Life Technologies, Grand Island, N.Y.) following the manufacturer's protocol. Real-time PCR was carried out using a StepOnePlus™ Real-Time PCR System (Life Technologies, Grand Island, N.Y.). mRNA amounts for bovine primers were calculated using the ΔΔCt method. Relative mRNA quantities for goat primers were calculated using the Pfaffl method."}, "[4]": {"test_system": "IL-1β-stimulated chondrocytes", "test": "IL-1β-stimulated chondrocytes in 3D PEGDA hydrogels: biochemical analysis (DNA, sGAG, collagen), histology, immunohistochemistry", "assay_type": "cell-based, bovine", "settings": "10 ng/ml IL-1β, 21 days", "description": "(§4) Cell Isolation and Culturing. Bovine chondrocytes were isolated from 4- to 8-week-old calves (Research 87, Inc., Boylston, Mass.), as previously described. Briefly, cartilage was dissected from the femoral patellar groove and condyles and minced into approximately 1 mm^2 pieces. Cells were isolated from the tissue by digesting overnight at 37° C. with 2 mg/ml type II collagenase (Worthington Biochemical Corp., Lakewood, N.J.), 5% fetal bovine serum (FBS), 100 U/ml penicillin and 100 μg/ml streptomycin on an orbital shaker. The cell suspension was passed through a 70 μm cell strainer, followed by centrifugation. Cells were washed 3 times using sterile phosphate buffered saline (PBS). Chondrocyte medium was composed of high glucose Dulbecco's Modified Eagle's Medium (DMEM) supplemented with 10 mM HEPES, 0.4 mM L-proline, 50 μg/ml ascorbic acid, 10% (v/v) fetal bovine serum (FBS; Hyclone Laboratories, Inc., Logan, Utah), 0.1 mM non-essential amino acids, 100 U/ml penicillin and 100 μg/ml streptomycin.\nas §3\nFor chondrocyte experiments, the cell-laden hydrogels were cultured in chondrocyte medium supplemented with 10 ng/ml IL-1β for 3 days. Following the initial 3 days, constructs were cultured with medium containing specific concentrations of hexosamine analog with 10 ng/ml IL-1β for an additional 21 days. The medium was changed 3 times per week.\nBiochemical Analysis. The constructs (n=3 for chondrocyte experiments and n=4 for chondrogenic experiments) were lyophilized for 48 hours and the dry weights measured. Constructs were then homogenized in 125 μg/ml papainase (Worthington Biochemical Corp., Lakewood, N.J.) and digested for 16 hours at 60° C. Quantification of DNA content was carried out using a Hoescht Dye 33342 DNA assay. Calf thymus DNA was used to generate standard curves. Quantification of sulfated glycosaminoglycans (sGAG), a molecule found in cartilage ECM, was carried out using a 1,9-dimethylmethylene blue (DMMB) dye assay; chondroitin sulfate was used to generate standard curves. Quantification of collagen was carried out via measuring hydroxyproline content after hydrolyzing in 6 N HCl overnight at 120° C. The reaction of hydroxyproline with chloramine-T and p-dimethylaminobenzaldehyde was performed as a measure of total collagen content; hydroxyproline was used to generate standard curves.\nHistology and Immunohistochemistry. Constructs were fixed in 10% formalin or 4% paraformaldehyde followed by dehydration in increasing concentrations of ethanol, embedded in paraffin and sliced into 5 μm sections. After paraffin removal and subsequent rehydration, sections were stained for proteoglycans using Safranin-O and fast green or prepared for immunohistochemistry. For immunohistochemical staining of type II collagen, endogenous peroxidase was quenched using 3% (v/v) hydrogen peroxide in methanol. Sections were then incubated at 37° C. with 2.5% (w/v) hyaluronidase and stained using a Histostain-SP Kit (AEC, Broad Spectrum) (Life Technologies, Grand Island, N.Y.) following the manufacturer's instructions. […]"}, "Chondrocytes": {"test_system": "Chondrocytes", "test": "WST-1 metabolic activity/toxicity screening of monolayer chondrocytes", "assay_type": "cell-based, bovine", "settings": "3 days exposure, 0-320 μM tested", "description": "as §4, with “Chondrocyte medium was composed of high glucose Dulbecco's Modified Eagle's Medium (DMEM) supplemented with 10 mM HEPES, 0.4 mM L-proline, 50 μg/ml ascorbic acid, 10% (v/v) fetal bovine serum (FBS; Hyclone Laboratories, Inc., Logan, Utah), 0.1 mM non-essential amino acids, 100 U/ml penicillin and 100 μg/ml streptomycin.” left out\nMetabolic Activity/Toxicity Screening: Water Soluble Tetrazonium-1 (WST-1) Assay. […] Absorbance of the wells was read using a microplate reader at a wavelength of 450 nm. The absorbance of the wells containing WST-1 reagent with no cells was subtracted from the absorbance readings. Data is presented as the background subtracted reading normalized to 0 μM wells from five independent experiments for each hexosamine analog."}, "[5]": {"settings": "both medium conditions, 21 days, dexamethasone 100 nM"}},
  "data": [
    {"smiles": "CCCC(=O)OC[C@H]1OC(O)[C@H](NC(C)=O)[C@@H](OC(=O)CCC)[C@H]1OC(=O)CCC", "note": "(stereo partly drawn) [GalNAc-a, 3,4,6-O-Bu3GalNAc]", "values": [
      {"measurement": "chondrogenic differentiation of the MSCs", "setting": "[1]", "result": "inhibits chondrogenic differentiation"},
      {"measurement": "total collagen accumulation normalized to DNA", "setting": "[1]; ascorbic acid-containing medium, GalNAc-a varying concentrations, dexamethasone 100 nM", "result": "dose-dependent decrease"},
      {"measurement": "sGAG accumulation normalized to DNA", "setting": "[1]; both medium conditions (with/without ascorbic acid), GalNAc-a varying concentrations, dexamethasone 100 nM", "result": "dose-dependent decrease"},
      {"measurement": "DNA content", "setting": "[1]; with or without ascorbic acid", "result": "did not change"},
      {"measurement": "DNA content", "setting": "[2]", "result": "did not have an effect"},
      {"measurement": "sGAG accumulation normalized to DNA", "setting": "[2]", "result": "decreased sGAG accumulation"},
      {"measurement": "SOX9 gene expression", "setting": "[3]; 50 μM to 150 μM, both medium conditions, 21 days", "result": "decreased in a dose-dependent manner"},
      {"measurement": "SOX9 gene expression", "setting": "[3]; 50 μM, ascorbic acid-containing medium, 21 days", "result": "increased SOX9 expression"},
      {"measurement": "type I collagen gene expression", "setting": "[3]; 50 μM, both medium conditions, 21 days", "result": "initially increased"},
      {"measurement": "type I collagen gene expression compared to no analog exposure", "setting": "[3]; above 50 μM for GalNAc-a, dexamethasone 100 nM, both medium conditions", "result": "remained elevated"},
      {"measurement": "MMP13 gene expression", "setting": "[3]; all analog concentrations, regardless of medium condition", "result": "increased at all analog concentrations"},
      {"measurement": "aggrecan gene expression", "setting": "[3]; [5]", "result": "followed a similar trend as SOX9 expression"},
      {"measurement": "type II collagen gene expression", "setting": "[3]; [5]", "result": "decreased type II collagen expression"},
      {"measurement": "proteoglycan deposition (Safranin-O staining)", "setting": "[4]; at 150 μM", "result": "further increase"},
      {"measurement": "sGAG accumulation normalized to DNA", "setting": "[4]; at 150 μM", "result": "further increase"},
      {"measurement": "type II collagen deposition (immunohistochemistry)", "setting": "[4]; starting at 50 μM, comparison of the three analogs", "result": "highest staining intensity"},
      {"measurement": "cartilage-like tissue formation (sGAG content, proteoglycan and type II collagen staining)", "setting": "[4]; comparison of the three analogs", "result": "greatest cartilage-like tissue formation"},
      {"measurement": "concentration from which reduced viability was observed", "setting": "Chondrocytes", "result": "≥ 160", "unit": "µM"}
    ]}
  ]
}
